# Where “and” joins values, the source holds several entries; their conditions need not be identical. Equal values may be shown once.
# Test system: WT C57Bl/6J mice
# Assay: Urine amino acid excretion in WT C57Bl/6J mice after JN-170
# Format: in vivo, mouse
# Parameters: urine Gln excretion / urine Phe excretion: unit not given here
# Conditions: for 12 hour urine Arg (Fig 2b) / 12 hour urine Gln (Fig 2b) / 12 hour urine Glu (Fig 2b) / 12 hour urine His (Fig 2b) / 12 hour urine Lys (Fig 2b) / 12 hour urine Met (Fig 2b) / 12 hour urine Phe (Fig 2b) / 12 hour urine Pro (Fig 2b) / 12 hour urine Ser (Fig 2b) / 12 hour urine Thr (Fig 2b) / 12 hour urine Trp (Fig 2b) / 12 hour urine Tyr (Fig 2b): individual mice
# Description: Male homozygous BTBR-Pah<enu2>/J (Pah^enu2) aged 10–13 weeks were purchased from Jackson Laboratory (no. 002232). Immediately before dosing, each animal’s bladder was manually emptied and a plasma sample was drawn. Animals were dosed by oral gavage with vehicle (10% DMSO, 20% 2-hydroxypropyl-β-cyclodextrin [Sigma-Aldrich]) followed by a 1-week washout prior to dosing with JN-170 at doses ranging from 50 to 250 mg/kg. Following dosing with vehicle or JN-170, animals were individually placed in metabolic cages to collect urine samples. After collection of each urine sample, cages were rinsed with ultra-pure water to recover residual analytes. Blood samples were collected predose as well as 1, 3, 8, 12, and 24 hours after dosing with vehicle or JN-170 into tubes with EDTA as a […], and plasma was separated by centrifuging samples at 2,200g for 5 minutes at 4°C. Throughout the study, mice had access to food and water ad libitum. Plasma and urine samples were stored at –80°C until processing.Ten-week-old male WT C57Bl/6J animals (Si Bei Fu Laboratory Animal Technology Co. Ltd.) were dosed either with vehicle or 50–250 mg/kg JN-170 by oral gavage and blood and urine samples were collected as described. All animals had unrestricted access to food and water during the study; C57Bl/6J were kept on rodent maintenance diet from Beijing Keao Xieli, Pah^enu2 mice were kept on Teklad diet no. T.2018.
# Urine and cage-wash samples were vortexed and centrifuged at 3,700g for 5 minutes to remove any solid precipitate. Neat samples and samples diluted 1:10 in water were further diluted 1:10 in crash solution (75% acetonitrile 25% methanol, 0.1% formic acid, 5 mM heavy labeled amino acids) to precipitate proteins. Samples were centrifuged at 3,700g for 5 minutes before the supernatant was transferred into an injection plate. Urine amino acid analysis was carried out using a quadrupole time of flight (QToF) LC-mass spectrometry (QToF-LC-MS) bioanalytical method. A standard curve of 1 mM down to 0.06 μM was used as the calibration curve to which samples were quantified. The amino acid concentrations were calculated with a 1/×2 linear regression over a concentration range of 60 nM to 1,000 μM of the individual amino acids. An Agilent QToF 6545 was operated in an accurate mass full scan range of 100–1,700 m/z positive ions formed by electrospray ionization with a normal phase HILIC chromatographic method. An Agilent InfinityLab Poroshell 120 HILIC-Z, 2.1 × 150 mm, 2.7 μm was used as the analytical column with 10 mM Ammonium Acetate in 0.1% FA as mobile phase A and 10 mM Ammonium Acetate in 95% ACN, 0.1% FA as mobile phase B. At a flow rate of 0.25 mL/min, the binary gradient increased from an initial 100% phase B to 90% phase B over 3 minutes. After 1.5 minutes, the gradient ramped to 80% mobile phase B. At 5.6 minutes into the gradient, mobile phase B ramped from 60% to 0% and held for 2 minutes before returning to initial conditions at 7.5 minutes. The gradient was stopped at 10 minutes.Total urine amino acid amounts were calculated by multiplying urine amino acid concentrations by the urine volume and adding the amount of amino acid recovered in the cage wash, which was calculated by multiplying the cage wash amino acid concentration by the cage wash volume.
# [1] = Fig S3b, WT mice, individual animals
# [2] = WT mice, 0–3 hours after 200 mg/kg
smiles,measurement,setting,value
N#Cc1ccc(-c2noc([C@]3(C(F)(F)F)CCN(C(=O)NCCC4(N)CC4)C3)n2)cc1 [JN-170],12 hour urine Arg (Fig 2b),50 mg/kg single oral dose,42.35 µg and 21.61 µg and 86.86 µg and 32.17 µg and 60.46 µg and 54.76 µg
same,12 hour urine Gln (Fig 2b),50 mg/kg single oral dose,1216.88 µg and 424.1 µg and 3207.04 µg and 1668.39 µg and 2208.59 µg and 1050.68 µg
same,12 hour urine Glu (Fig 2b),50 mg/kg single oral dose,29.83 µg and 17.33 µg and 39.89 µg and 30.41 µg and 48.52 µg and 28.91 µg
same,12 hour urine His (Fig 2b),50 mg/kg single oral dose,99.8 µg and 39.7 µg and 232.38 µg and 133.78 µg and 173.51 µg and 97.64 µg
same,12 hour urine Lys (Fig 2b),50 mg/kg single oral dose,34.24 µg and 15.87 µg and 87.69 µg and 25.64 µg and 70.14 µg and 37.6 µg
same,12 hour urine Met (Fig 2b),50 mg/kg single oral dose,22.43 µg and 9.44 µg and 86.47 µg and 39.61 µg and 54.33 µg
same,12 hour urine Phe (Fig 2b),50 mg/kg single oral dose,9.69 µg and 12.9 µg and 44.78 µg and 18.25 µg and 46.82 µg and 10.07 µg
same,12 hour urine Pro (Fig 2b),50 mg/kg single oral dose,8.47 µg and 4.8 µg and 12.9 µg and 9.81 µg and 24.06 µg and 10.26 µg
same,12 hour urine Ser (Fig 2b),50 mg/kg single oral dose,30.76 µg and 12.92 µg and 98.91 µg and 47.01 µg and 97.58 µg and 29.03 µg
same,12 hour urine Thr (Fig 2b),50 mg/kg single oral dose,158.71 µg and 83.75 µg and 358.72 µg and 229.83 µg and 330.77 µg and 183.12 µg
same,12 hour urine Trp (Fig 2b),50 mg/kg single oral dose,7.91 µg and 4.53 µg and 17.51 µg and 12.59 µg and 19.36 µg and 8.39 µg
same,12 hour urine Tyr (Fig 2b),50 mg/kg single oral dose,86.45 µg and 42.23 µg and 289.76 µg and 150.67 µg and 234.77 µg and 101.34 µg
same,12 hour urine Arg (Fig 2b),100 mg/kg single oral dose,84.18 µg and 60.05 µg and 104.07 µg and 105.27 µg and 46.38 µg and 44.86 µg
same,12 hour urine Gln (Fig 2b),100 mg/kg single oral dose,3618.3 µg and 3716.4 µg and 5677.3 µg and 3847.03 µg and 3083.95 µg and 2876.64 µg
same,12 hour urine Glu (Fig 2b),100 mg/kg single oral dose,46.32 µg and 46.97 µg and 58.94 µg and 50.51 µg and 40.88 µg and 28.49 µg
same,12 hour urine His (Fig 2b),100 mg/kg single oral dose,295.94 µg and 255.87 µg and 436.69 µg and 286 µg and 268.58 µg and 216 µg
same,12 hour urine Lys (Fig 2b),100 mg/kg single oral dose,113.28 µg and 69.96 µg and 170.84 µg and 119.16 µg and 64.12 µg and 61.63 µg
same,12 hour urine Met (Fig 2b),100 mg/kg single oral dose,69.6 µg and 61.3 µg and 109.16 µg and 65.46 µg and 59.17 µg and 56.84 µg
same,12 hour urine Phe (Fig 2b),100 mg/kg single oral dose,57.79 µg and 56.42 µg and 118.09 µg and 57.72 µg and 36.93 µg and 35.59 µg
same,12 hour urine Pro (Fig 2b),100 mg/kg single oral dose,8.92 µg and 10.04 µg and 30.88 µg and 13.13 µg and 10.09 µg and 9.04 µg
same,12 hour urine Ser (Fig 2b),100 mg/kg single oral dose,108.24 µg and 109.95 µg and 223.3 µg and 89.79 µg and 97.93 µg and 80.73 µg
same,12 hour urine Thr (Fig 2b),100 mg/kg single oral dose,506.96 µg and 408.61 µg and 713.8 µg and 526.01 µg and 450.28 µg and 363.04 µg
same,12 hour urine Trp (Fig 2b),100 mg/kg single oral dose,23.65 µg and 18.61 µg and 32.89 µg and 21.7 µg and 20.33 µg and 13.52 µg
same,12 hour urine Tyr (Fig 2b),100 mg/kg single oral dose,347.53 µg and 292.84 µg and 493.76 µg and 286.11 µg and 269.6 µg and 215.7 µg
same,12 hour urine Arg (Fig 2b),200 mg/kg single oral dose,57.75 µg and 78.23 µg and 75.91 µg and 43.73 µg and 83.72 µg and 75.77 µg
same,12 hour urine Gln (Fig 2b),200 mg/kg single oral dose,4199.73 µg and 4322.77 µg and 4076.82 µg and 4061.16 µg and 5861.18 µg and 4643.5 µg
same,12 hour urine Glu (Fig 2b),200 mg/kg single oral dose,38.45 µg and 57.79 µg and 49.69 µg and 35.38 µg and 50.26 µg and 67.43 µg
same,12 hour urine His (Fig 2b),200 mg/kg single oral dose,416.82 µg and 349.23 µg and 335.84 µg and 309.72 µg and 451.38 µg and 370.2 µg
same,12 hour urine Lys (Fig 2b),200 mg/kg single oral dose,104.5 µg and 123.16 µg and 131.26 µg and 79.18 µg and 151.5 µg and 70.63 µg
same,12 hour urine Met (Fig 2b),200 mg/kg single oral dose,123.47 µg and 86.31 µg and 49.16 µg and 59.08 µg and 101.09 µg and 139.58 µg
same,12 hour urine Phe (Fig 2b),200 mg/kg single oral dose,133.44 µg and 84.26 µg and 51.41 µg and 40.35 µg and 175.28 µg and 83.35 µg
same,12 hour urine Pro (Fig 2b),200 mg/kg single oral dose,13.11 µg and 14.35 µg and 18.33 µg and 8.21 µg and 20.58 µg and 15.61 µg
same,12 hour urine Ser (Fig 2b),200 mg/kg single oral dose,170.69 µg and 159.37 µg and 110.1 µg and 92.34 µg and 194.17 µg and 159.84 µg
same,12 hour urine Thr (Fig 2b),200 mg/kg single oral dose,631.21 µg and 617.4 µg and 618.83 µg and 576.45 µg and 832.11 µg and 699.79 µg
same,12 hour urine Trp (Fig 2b),200 mg/kg single oral dose,40.01 µg and 30.26 µg and 27.35 µg and 18.62 µg and 33.13 µg and 31.85 µg
same,12 hour urine Tyr (Fig 2b),200 mg/kg single oral dose,480.66 µg and 434.44 µg and 355.04 µg and 315.96 µg and 607.88 µg and 491.56 µg
same,12 hour urine Arg (Fig 2b),250 mg/kg single oral dose,80.65 µg and 55.84 µg and 88.5 µg and 63.14 µg and 86.48 µg and 72.88 µg
same,12 hour urine Gln (Fig 2b),250 mg/kg single oral dose,7107.31 µg and 3727.75 µg and 5603.56 µg and 4267.69 µg and 6411.47 µg and 5312.07 µg
same,12 hour urine Glu (Fig 2b),250 mg/kg single oral dose,72.56 µg and 44.09 µg and 57.4 µg and 37.58 µg and 54.56 µg and 45.85 µg
same,12 hour urine His (Fig 2b),250 mg/kg single oral dose,551.64 µg and 312.28 µg and 484.93 µg and 357.16 µg and 531.6 µg and 380.26 µg
same,12 hour urine Lys (Fig 2b),250 mg/kg single oral dose,195.46 µg and 113.58 µg and 174.58 µg and 158.8 µg and 185.91 µg and 135.3 µg
same,12 hour urine Met (Fig 2b),250 mg/kg single oral dose,187.74 µg and 68.61 µg and 113.61 µg and 89.08 µg and 102.86 µg and 165.83 µg
same,12 hour urine Phe (Fig 2b),250 mg/kg single oral dose,183.47 µg and 73.49 µg and 113.19 µg and 97.89 µg and 98.25 µg and 112.7 µg
same,12 hour urine Pro (Fig 2b),250 mg/kg single oral dose,23.91 µg and 11.83 µg and 17.19 µg and 13.18 µg and 15.23 µg and 18.44 µg
same,12 hour urine Ser (Fig 2b),250 mg/kg single oral dose,292.3 µg and 114.91 µg and 195.78 µg and 144.05 µg and 202.42 µg and 201.61 µg
same,12 hour urine Thr (Fig 2b),250 mg/kg single oral dose,952.09 µg and 536.61 µg and 931.14 µg and 639.81 µg and 964.07 µg and 684.47 µg
same,12 hour urine Trp (Fig 2b),250 mg/kg single oral dose,51.77 µg and 27.86 µg and 38.14 µg and 35.4 µg and 37.19 µg and 32.26 µg
same,12 hour urine Tyr (Fig 2b),250 mg/kg single oral dose,668.76 µg and 364.7 µg and 555.89 µg and 445.94 µg and 662.56 µg and 523.46 µg
same,increase in urinary Gln excretion vs vehicle,"250 mg/kg, 12 h urine",84 fold
same,increase in urinary His excretion vs vehicle,"250 mg/kg, 12 h urine",32 fold
same,increase in urinary Thr excretion vs vehicle,"250 mg/kg, 12 h urine",29 fold
same,"urinary Gln excretion, mean ± SD","250 mg/kg, 12 h urine","5,405 ± 1270 μg"
same,"urinary His excretion, mean ± SD","250 mg/kg, 12 h urine",436 ± 100 µg
same,"urinary Thr excretion, mean ± SD","250 mg/kg, 12 h urine",785 ± 187 µg
same,"urinary Pro excretion, mean ± SD","250 mg/kg, 12 h urine, effect negligible",17 ± 4 µg
same,urine Gln excretion,[1],1587.77 and 1811.58 and 1136.33 and 1371.1 and 1542.95 and 797.75
same,urine Phe excretion,[1],31.41 and 35.2 and 15.95 and 12.69 and 89.66 and 34.45
same,"glutamine excreted in urine, mean ± SD",[2],"1,375 ± 362 μg"
same,"urinary excretion of Phe, mean ± SD",[2],37 ± 28 µg

# From publication PMC11601558, “SLC6A19 inhibition facilitates urinary neutral amino acid excretion and lowers plasma phenylalanine” (JCI Insight, 2024)
